For this experiment, the target named is T1, PTP-1b (Homo sapiens, UniProt P18031).
T1 construct: purchased Bioneer, Korea
T1 sequence (P18031 1-435): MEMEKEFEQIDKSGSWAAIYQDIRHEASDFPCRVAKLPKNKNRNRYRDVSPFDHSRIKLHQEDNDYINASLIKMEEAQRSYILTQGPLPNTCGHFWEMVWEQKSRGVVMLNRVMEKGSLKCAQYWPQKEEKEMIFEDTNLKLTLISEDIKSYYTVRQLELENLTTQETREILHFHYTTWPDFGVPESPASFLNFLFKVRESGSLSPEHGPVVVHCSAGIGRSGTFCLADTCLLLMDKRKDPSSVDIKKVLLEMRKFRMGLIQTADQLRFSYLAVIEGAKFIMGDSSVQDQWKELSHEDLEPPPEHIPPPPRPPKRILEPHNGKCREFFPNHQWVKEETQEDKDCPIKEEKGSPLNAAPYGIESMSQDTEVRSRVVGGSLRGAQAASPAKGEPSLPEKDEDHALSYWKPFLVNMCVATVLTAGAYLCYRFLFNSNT
Description: PTP-1b inhibitory activity of lobaric acid (control), pNPP assay. The format is biochemical. The conditions noted are these: read-out: IC50 against PTP-1b. The method, then: Meanwhile, the PTP-1b inhibitory activity of lobaric acid as a control was measured. PTP-1b used in the test was purchased from BIOMOL (USA). In order to spectroscopically measure the activity of the enzyme, about 0.2 μg/Ml of PTP-1b, PTP-1b buffer (50 mM citrate, pH 6.0, 0.1M NaCl, 1 mM EDTA, 1 mM DTT), lobaric acid, 4 mM pNPP were mixed, shaken lightly, and then reacted at 37° C. for 30 minutes, after which the absorbance at 405 nm was measured.

pIC50: −log10 of the molar value.

In the case of `CCCCCc1c2c(cc(O)c1C(=O)O)OC(=O)c1c(cc(OC)cc1C(=O)CCCC)O2` [lobaric acid], the pIC50 (commonly the IC50 on a negative log10 scale, so that one unit is a factor of ten) was 6.06.
